Each block holds one compound with its values, some of them ahead of it.
How the values were obtained:
Mus musculus [1] = test: Reduction in milk consumption by fasted mouse after oral administration
[2] = target: Melanin-concentrating hormone receptor 1 (Mus musculus, UniProt Q8JZL2); test: Inhibition constant for mouse Melanin concentrating hormone receptor 1
[3] = target: Melanin-concentrating hormone receptor 2 (Homo sapiens, UniProt Q969V1); test: Inhibition constant for human Melanin concentrating hormone receptor 2
[4] = target: T1, Melanin-concentrating hormone receptor 1 (Homo sapiens, UniProt Q99705); test: Inhibition constant for human Melanin concentrating hormone receptor 1
[5] = target: T1, Melanin-concentrating hormone receptor 1; test: Inhibition of [Ca2+] influx mediated by human Melanin concentrating hormone receptor 1 expressing cells; format: functional
Rattus norvegicus [6] = test: Oral efficacy for reduction in body weight of rats after 4 days of administration; Range is 15-20%; format: functional
Mus musculus [7] = test: In vivo efficacy of compound for food intake by the mice in 6 hr after peroral administration at 30 mpk expressed as percent of vehicle; format: functional
[8] = target: Melanin-concentrating hormone receptor 1 (Mus musculus) (UniProt Q8JZL2); test: Ex vivo inhibition of MCH-ADO binding to Melanin concentrating hormone receptor 1 in mice (n=3) 6 hr after 30 mg/kg peroral dose; format: organism-based; set-up: dose 30 mg/kg; conditions: at 30 mg/kg
Mus musculus [9] = test: In vivo efficacy of compound for food intake by the mice in 24 hr after peroral administration at 30 mpk expressed as percent of vehicle; format: functional
Mus musculus [10] = test: In vivo efficacy of compound for food intake by the mice in 2 h after peroral administration at 30 mpk expressed as percent of vehicle; format: functional
[11] = target: Melanin-concentrating hormone receptor 1 (Mus musculus) (UniProt Q8JZL2); test: Ex vivo inhibition of MCH-ADO binding to Melanin concentrating hormone receptor 1 in mice (n=3) 24 hr r after 30 mg/kg peroral dose; format: organism-based; set-up: dose 30 mg/kg; conditions: at 30 mg/kg
[12] = Bioavailability of compound in rats (n= 3) after oral administration at 10 mpk; format: ADME, organism-based; conditions: rat, in vivo, 10 mg/kg
[13] = Clearance of compound in rats (n= 3) after intravenous administration at 10 mpk; format: ADME, organism-based; conditions: rat, in vivo, 10 mg/kg
[14] = Area under concentration time curve (from 0-24 hr) for compound in rats (n= 3) after oral administration at 10 mpk; format: ADME; set-up: dose 10 mpk, time < 24 hr, route oral; conditions: rat, in vivo, 10 mg/kg
[15] = Steady state volume distribution of compound in rats (n= 3) after oral administration at 10 mpk; format: ADME, organism-based; conditions: rat, in vivo, 10 mg/kg
[16] = Half life of compound in rats (n= 3) after intravenous administration at 10 mpk; format: ADME, organism-based; conditions: rat, in vivo, 10 mg/kg
Rattus norvegicus [17] = test: Reduction of food intake by rats after 6 hr of administration was measured; format: functional
Rattus norvegicus [18] = test: Suppression of Melanin concentrating hormone receptor-stimulated food intake in lean rats after 30 mg/kg dose; format: functional

Melanin-concentrating hormone receptor 2, sequence (Q969V1 whole entry): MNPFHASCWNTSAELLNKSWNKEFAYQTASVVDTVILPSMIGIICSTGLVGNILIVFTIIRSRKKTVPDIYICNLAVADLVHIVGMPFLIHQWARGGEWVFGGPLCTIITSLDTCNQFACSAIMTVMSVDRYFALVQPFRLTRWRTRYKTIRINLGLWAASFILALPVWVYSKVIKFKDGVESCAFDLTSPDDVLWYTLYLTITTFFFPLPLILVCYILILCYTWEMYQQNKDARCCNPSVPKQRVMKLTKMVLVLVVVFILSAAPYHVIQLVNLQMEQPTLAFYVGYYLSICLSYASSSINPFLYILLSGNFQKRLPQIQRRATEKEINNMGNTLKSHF
T1 sequence (Q99705 whole entry): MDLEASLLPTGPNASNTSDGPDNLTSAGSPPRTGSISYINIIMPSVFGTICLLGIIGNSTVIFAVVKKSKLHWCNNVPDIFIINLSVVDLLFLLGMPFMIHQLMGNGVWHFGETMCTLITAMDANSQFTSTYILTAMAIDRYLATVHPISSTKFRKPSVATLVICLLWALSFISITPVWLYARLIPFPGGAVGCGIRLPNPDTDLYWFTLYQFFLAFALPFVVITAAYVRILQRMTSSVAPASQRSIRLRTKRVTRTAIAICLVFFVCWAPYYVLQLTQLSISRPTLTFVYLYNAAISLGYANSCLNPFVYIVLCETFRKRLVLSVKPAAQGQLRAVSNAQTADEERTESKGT
Melanin-concentrating hormone receptor 1 (Mus musculus), sequence (Q8JZL2 whole entry): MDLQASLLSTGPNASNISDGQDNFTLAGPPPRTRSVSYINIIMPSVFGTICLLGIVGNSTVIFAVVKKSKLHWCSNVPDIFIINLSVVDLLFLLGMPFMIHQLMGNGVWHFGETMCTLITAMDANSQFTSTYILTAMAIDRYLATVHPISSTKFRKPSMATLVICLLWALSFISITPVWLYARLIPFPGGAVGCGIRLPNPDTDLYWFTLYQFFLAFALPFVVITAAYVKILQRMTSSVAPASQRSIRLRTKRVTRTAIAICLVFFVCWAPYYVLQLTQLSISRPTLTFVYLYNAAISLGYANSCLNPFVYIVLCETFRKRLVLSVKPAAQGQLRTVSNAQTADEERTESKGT
Melanin-concentrating hormone receptor 1 (Mus musculus, UniProt Q8JZL2), sequence (Q8JZL2 whole entry): as above

Structure (SMILES): CC(=O)N(C)C1CCN(c2ccc(NC(=O)N3CCC(c4ccc(Cl)cc4)CC3)cc2)C1 (configuration not stated)
Reduction (Mus musculus [1]): 64%

Structure (SMILES): N#Cc1cccc([C@]23CC[C@@H](N(CCN4CC[C@@H](O)C4)C(=O)Nc4ccc(F)c(Cl)c4)CC2C3)c1 (some centres not stated)
Ki [2]: 0.0107 µM
Ki [3]: > 3 µM

Structure (SMILES): N#Cc1cccc(C2=CCC(N(CCN3CCCC3)C(=O)Nc3ccc(F)c(Cl)c3)CC2)c1 (configuration not stated)
Ki [4]: 0.003 µM
Kb [5]: 0.009 µM
Ki [3]: > 3 µM

Structure (SMILES): CN(C)c1nc(N[C@H]2CC[C@@H](NC(=O)c3ccc(F)c(F)c3)CC2)nc2ccccc12
Efficacy (Rattus norvegicus [6]): 20%

Structure (SMILES): N#Cc1cccc([C@]23CC[C@@H](N(CCN4CC[C@@H](O)C4)C(=O)Nc4ccc(F)c(Cl)c4)C[C@H]2C3)c1
Ki [2]: 0.0059 µM
Efficacy (Mus musculus [7]): 93.6%
inhibition [8]: 50%
Efficacy (Mus musculus [9]): 94.9%
Efficacy (Mus musculus [10]): 85%
Ki [3]: > 3 µM
inhibition [11]: 13%

Structure (SMILES): Cc1cc(N(C)CCN(C)C)nc2ccc(NC(=O)/C=C/c3ccc(OC(F)(F)F)cc3)cc12
Reduction (Rattus norvegicus [17]): >30%

Structure (SMILES): N#Cc1ccc([C@]23CC[C@@H](N(CCN4CCCC4)C(=O)Nc4cc(Cl)cc(Cl)c4)[C@H]2C3)cc1
Ki [4]: 0.018 µM
Efficacy (Mus musculus [7]): 86.6%
inhibition [8]: 76%
Efficacy (Mus musculus [9]): 94.7%
Efficacy (Mus musculus [10]): 78.4%
Ki [3]: > 3 µM

Structure (SMILES): CN(C)CC1CCc2cc(NC(=O)c3ccc(-c4ccc(F)cc4)cc3)ccc2C1 (configuration not stated)
Suppression (Rattus norvegicus [18]): >90%

Structure (SMILES): N#Cc1cccc([C@@]23CC[C@@H](N(CCN4CC[C@@H](O)C4)C(=O)Nc4ccc(F)c(Cl)c4)C[C@@H]2C3)c1
Ki [2]: 0.0078 µM
Efficacy (Mus musculus [7]): 99%
inhibition [8]: 62%
Efficacy (Mus musculus [9]): 98.6%
Efficacy (Mus musculus [10]): 80%
Ki [3]: > 3 µM
inhibition [11]: 8%

The next lines start with results.

Ki [4]: 2.02 µM
Ki [3]: > 3 µM
Structure (SMILES): N#Cc1cccc([C@H]2CC[C@@H](N(CCN3CC[C@@H](O)C3)C(=O)Nc3ccc(F)c(C(F)(F)F)c3)CC2)c1

Ki [4]: 0.0027 µM
Ki [2]: 0.003 µM
Kb [5]: 0.0019 µM
inhibition [8]: 99%
bioavailability [12]: 27%
clearance [13]: 1.31 L/h/kg
AUC [14]: 2.14 µg·h/mL
Vd(ss) [15]: 5.6 L/kg
Ki [3]: > 3 µM
inhibition [11]: 58%
half-life [16]: 4 h
Structure (SMILES): CN1CCN(CCCCN(C(=O)Nc2ccc(F)c(C(F)(F)F)c2)[C@@H]2CC[C@]3(c4ccc(C#N)cc4)C[C@H]23)CC1
Efficacy (Mus musculus [7]): 76%
Efficacy (Mus musculus [9]): 78.1%
Efficacy (Mus musculus [10]): 77.3%

Ki [4]: 0.0089 µM
Ki [2]: 0.0096 µM
Kb [5]: 0.002 µM
Ki [3]: > 3 µM
Structure (SMILES): N#Cc1cccc(-c2ccc(N(CCN3CC[C@@H](O)C3)C(=O)Nc3ccc(F)c(C(F)(F)F)c3)cc2)c1

Ki [4]: > 3 µM
Ki [3]: > 3 µM
Structure (SMILES): C[C@]1(c2cccc(C#N)c2)CC[C@@H](N(CCN2CC[C@@H](O)C2)C(=O)Nc2ccc(F)c(C(F)(F)F)c2)CC1

Ki [4]: 0.215 µM
Ki [3]: > 3 µM
Structure (SMILES): N#Cc1cccc([C@H]2CC[C@H](N(CCN3CC[C@@H](O)C3)C(=O)Nc3ccc(F)c(C(F)(F)F)c3)CC2)c1

Ki [4]: 0.391 µM
Ki [3]: > 3 µM
Structure (SMILES): C[C@]1(c2cccc(C#N)c2)CC[C@H](N(CCN2CC[C@@H](O)C2)C(=O)Nc2ccc(F)c(C(F)(F)F)c2)CC1

Ki [4]: 0.0071 µM
inhibition [8]: 81%
Ki [3]: > 3 µM
Structure (SMILES): N#Cc1ccccc1[C@]12CC[C@@H](N(CCN3CC[C@@H](O)C3)C(=O)Nc3ccc(F)c(C(F)(F)F)c3)[C@H]1C2
Efficacy (Mus musculus [7]): 68.2%
Efficacy (Mus musculus [9]): 80.8%
Efficacy (Mus musculus [10]): 65.7%

Ki [3]: > 3 µM
Structure (SMILES): N#Cc1cccc([C@@]23CC[C@@H](N(CCN4CC[C@@H](O)C4)C(=O)Nc4ccc(F)c(Cl)c4)CC2C3)c1 (some centres not stated)
